These results are taken from ChEMBL document CHEMBL1201862, “PubChem BioAssay data set” (2004).

Among the test systems are K562; UO-31; OVCAR-3; SR; CAKI-1; MDA-N; SK-MEL-5; BT-549; SK-MEL-28; Hs-578T; A549; HCT-116; SNB-19; EKVX; NCI/ADR-RES; HOP-62; SK-MEL-2; MDA-MB-435; TK-10; HL-60.
Holding throughout (experiment): DTP human tumour cell line panel, 48 h

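These data come from cells grown in 96-well plates and exposed to compound for 48 hours at five concentrations. Here, GI50 denotes the concentration required for 50% inhibition of growth.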 Calls of active or inactive are those of the source. Cut-off read from the data, not from the text of the source: active = GI50 up to about 1.1 µM and inactive = higher. Some results are limits rather than exact numbers.

A word on the GI50: it is the concentration at which growth is held to half of that of the control. As to `COc1ccc2nc(-c3ccc(O)cc3)cn2c1`, the GI50 with K562 is 37.1 µM (inactive); in the assay on UO-31, 35 µM (inactive); in the assay with OVCAR-3 it was 82 µM (inactive); in the assay on SR it was 10 µM (inactive); in the assay with CAKI-1 it was 55.8 µM (inactive); in the assay on MDA-N, 23.4 µM (inactive). Further, the GI50 in the assay on SK-MEL-5 was 16.6 µM (inactive); in the assay on BT-549, > 100 µM (inactive); with SK-MEL-28, 85.5 µM (inactive); in the assay on Hs-578T, 73.1 µM (inactive); in the assay with A549, 64 µM (inactive); with HCT-116 it was 48.5 µM (inactive). For the same compound, the GI50 in the assay on SNB-19 was > 100 µM (inactive); in the assay on EKVX it was 98.6 µM (inactive); in the assay on NCI/ADR-RES it was 65.8 µM (inactive); in the assay with HOP-62, 50.1 µM (inactive); in the assay with SK-MEL-2, > 100 µM (inactive); in the assay with MDA-MB-435, 18.5 µM (inactive). Also, the GI50 in the assay on TK-10 was 71 µM (inactive).
Regarding `O=P1(C(O)/C=C/c2ccccc2)N(Cc2ccccc2)[C@@H]2CCCC[C@H]2N1Cc1ccccc1` (stereo partly drawn), the GI50 with K562 was 3.74 µM (inactive); with UO-31, 4.55 µM (inactive); in the assay on OVCAR-3 it was 6.64 µM (inactive); in the assay with CAKI-1 it was 13.1 µM (inactive); in the assay with MDA-N, 4.62 µM (inactive); in the assay with HL-60 it was 2.71 µM (inactive). For the same compound, the GI50 is 4.58 µM (inactive) in the assay with SK-MEL-5; 15 µM (inactive) with BT-549; 11.2 µM (inactive) with SK-MEL-28; 3.65 µM (inactive) in the assay with Hs-578T; 4.62 µM (inactive) in the assay with A549; 3.54 µM (inactive) in the assay on HCT-116. The GI50 is 6.22 µM (inactive) with SNB-19; 6.7 µM (inactive) in the assay on EKVX; 9.53 µM (inactive) in the assay on NCI/ADR-RES; 11.1 µM (inactive) in the assay with HOP-62; 2.62 µM (inactive) in the assay on SK-MEL-2; 3.67 µM (inactive) in the assay on MDA-MB-435. For the same compound, the GI50 in the assay on TK-10 was 7.23 µM (inactive).
With `N#Cc1c(N)nc2c(C#N)c(N)cc3c2c1Oc1ccccc1-3`, the GI50 in the assay on K562, in the assay on UO-31, in the assay with OVCAR-3, in the assay with CAKI-1, in the assay on MDA-N and with HL-60 was > 100 µM (inactive) throughout. In addition, the GI50 with SK-MEL-5, with BT-549, with SK-MEL-28, in the assay on Hs-578T, in the assay with A549 and with HCT-116 was > 100 µM (inactive) throughout. In addition, the GI50 with SNB-19, in the assay with EKVX, in the assay on NCI/ADR-RES, with HOP-62, with SK-MEL-2 and in the assay on MDA-MB-435 was > 100 µM (inactive) each time. Also, in the assay on TK-10, the GI50 was > 100 µM (inactive).
As for `COc1cc(N(CCC#N)CCC#N)ccc1C(/N=N/c1ccccc1C)=N\NC(=O)c1ccc(C)cc1`, the GI50 is 29.8 µM (inactive) with K562; 76.2 µM (inactive) in the assay with UO-31; 24.2 µM (inactive) in the assay with OVCAR-3; > 100 µM (inactive) with CAKI-1; 23.8 µM (inactive) in the assay on MDA-N; 2.15 µM (inactive) in the assay on HL-60. In addition, the GI50 with SK-MEL-5 is > 100 µM (inactive); in the assay with BT-549 it was 98.2 µM (inactive); in the assay with SK-MEL-28, > 100 µM (inactive); in the assay with Hs-578T, > 100 µM (inactive); in the assay with A549, 59.6 µM (inactive); in the assay with HCT-116, 36.1 µM (inactive). For the same compound, the GI50 was 63 µM (inactive) with SNB-19; 28.4 µM (inactive) in the assay on EKVX; > 100 µM (inactive) with NCI/ADR-RES; > 100 µM (inactive) in the assay with HOP-62; 43.9 µM (inactive) with SK-MEL-2; 29.3 µM (inactive) in the assay with MDA-MB-435. In addition, the GI50 in the assay with TK-10 was > 100 µM (inactive).
Take `Cc1ccc(C(=O)Cn2c(C(=O)/C=C/c3cccs3)nc3ccccc32)cc1`: the GI50 was 25.8 µM (inactive) in the assay with K562; 62.8 µM (inactive) with UO-31; 31.3 µM (inactive) in the assay on OVCAR-3; 6.68 µM (inactive) with SR; 28.1 µM (inactive) in the assay with MDA-N; 22.7 µM (inactive) in the assay on HL-60. In addition, the GI50 is 36.1 µM (inactive) in the assay with SK-MEL-5; 34.4 µM (inactive) in the assay on BT-549; 68.5 µM (inactive) in the assay on SK-MEL-28; 20.7 µM (inactive) with Hs-578T; 32.6 µM (inactive) with A549; 43.4 µM (inactive) with HCT-116. For the same compound, the GI50 is 58.1 µM (inactive) in the assay with SNB-19; 23.2 µM (inactive) in the assay with NCI/ADR-RES; 67.1 µM (inactive) with HOP-62; 12.6 µM (inactive) with SK-MEL-2; 21.3 µM (inactive) in the assay with MDA-MB-435; 53.2 µM (inactive) in the assay on TK-10.
On to `CSC1NC(c2ccc(Cl)cc2)=C(C#N)C(=O)N1C1OCC(OC(C)=O)C(OC(C)=O)C1OC(C)=O` (stereo not drawn), for which the GI50 with K562 was > 100 µM (inactive); in the assay with UO-31 it was 53.3 µM (inactive); in the assay with OVCAR-3 it was > 100 µM (inactive); in the assay with SR, 24.5 µM (inactive); with CAKI-1 it was > 100 µM (inactive); with MDA-N, > 100 µM (inactive). In addition, the GI50 was 81.1 µM (inactive) in the assay with SK-MEL-5; > 100 µM (inactive) in the assay with BT-549; > 100 µM (inactive) with SK-MEL-28; > 100 µM (inactive) with Hs-578T; > 100 µM (inactive) in the assay on SNB-19; > 100 µM (inactive) with EKVX. The GI50 in the assay with NCI/ADR-RES, in the assay with HOP-62, in the assay on MDA-MB-435 and with TK-10 was > 100 µM (inactive) throughout.
`COc1c(C(=O)CC2c3c(cc4oc(C)cc(=O)c4c3OC)OC(=N)C2c2nc3ccccc3[nH]2)c(O)c(OC)c2occc12` (stereo not drawn): the GI50 with K562, in the assay on UO-31, with OVCAR-3, with CAKI-1, in the assay with MDA-N and in the assay with HL-60 was > 100 µM (inactive) in each case. Also, the GI50 with SK-MEL-5, with BT-549, in the assay on SK-MEL-28, with Hs-578T, with A549 and in the assay on HCT-116 was > 100 µM (inactive) throughout. Also, the GI50 in the assay with SNB-19, with EKVX, in the assay on NCI/ADR-RES, with HOP-62, in the assay on SK-MEL-2 and with MDA-MB-435 was > 100 µM (inactive) in each case. The GI50 with TK-10 is > 100 µM (inactive).
With `O=C(O)C(Cc1ccccc1)Cc1ccccc1`, the GI50 with K562, in the assay with UO-31, in the assay with OVCAR-3, in the assay with CAKI-1, in the assay on MDA-N and in the assay on HL-60 was > 100 µM (inactive) in each case. For the same compound, the GI50 in the assay on SK-MEL-5 is > 100 µM (inactive); in the assay on BT-549 it was > 100 µM (inactive); in the assay with SK-MEL-28, > 100 µM (inactive); in the assay on Hs-578T, 7.48 µM (inactive); in the assay on A549, > 100 µM (inactive); in the assay on HCT-116, > 100 µM (inactive). Moreover, the GI50 in the assay with SNB-19, in the assay with EKVX, in the assay with NCI/ADR-RES, with HOP-62, with SK-MEL-2 and in the assay on MDA-MB-435 was > 100 µM (inactive) throughout. For the same compound, the GI50 with TK-10 is > 100 µM (inactive).
Consider `CN(Cc1ccccc1)c1cc(=O)n(C)c(=O)[nH]1`, for which the GI50 with K562, with UO-31, in the assay with OVCAR-3, in the assay with CAKI-1, with MDA-N and with HL-60 was > 100 µM (inactive) in each case. The GI50 in the assay with SK-MEL-5, in the assay on BT-549, with SK-MEL-28, with Hs-578T, in the assay with A549 and with HCT-116 was > 100 µM (inactive) each time. The GI50 in the assay on SNB-19, in the assay with NCI/ADR-RES, with SK-MEL-2, in the assay with MDA-MB-435 and in the assay on TK-10 was > 100 µM (inactive) each time.
As to `Nc1ccn(C2OC(COC(=O)C34CC5CC(CC(C5)C3)C4)C(O)C2O)c(=O)n1` (stereo not drawn), the GI50 in the assay with K562 is 43.4 µM (inactive); in the assay with UO-31 it was > 40.5 µM (inactive); with OVCAR-3, > 100 µM (inactive); in the assay on CAKI-1, > 100 µM (inactive); in the assay with MDA-N, > 100 µM (inactive); in the assay on HL-60 it was 0.622 µM (active). For the same compound, the GI50 in the assay with SK-MEL-5 is > 100 µM (inactive); with BT-549, > 100 µM (inactive); with SK-MEL-28 it was 52.4 µM (inactive); in the assay with Hs-578T, > 100 µM (inactive); in the assay on A549 it was 0.773 µM (active); with HCT-116 it was 2.75 µM (inactive). For the same compound, the GI50 with SNB-19 was > 79.8 µM (inactive); in the assay with EKVX it was > 100 µM (inactive); with NCI/ADR-RES it was > 100 µM (inactive); in the assay on HOP-62, 0.973 µM (active); with SK-MEL-2, > 100 µM (inactive); in the assay with MDA-MB-435, > 100 µM (inactive). Further, the GI50 in the assay on TK-10 is > 100 µM (inactive).
For `CCn1c(-c2ccc(C)cc2)cs/c1=N\C(P(=O)(O)O)P(=O)(O)O`, the GI50 with K562, in the assay on UO-31, with OVCAR-3, in the assay with SR, in the assay with CAKI-1 and in the assay with MDA-N was > 100 µM (inactive) throughout. The GI50 was 0.337 µM (active) with HL-60; 31.6 µM (inactive) with SK-MEL-5; > 100 µM (inactive) in the assay with BT-549; > 100 µM (inactive) with SK-MEL-28; > 100 µM (inactive) in the assay with Hs-578T; > 100 µM (inactive) with A549. For the same compound, the GI50 with HCT-116, in the assay on SNB-19, in the assay on EKVX, with NCI/ADR-RES, with HOP-62 and with MDA-MB-435 was > 100 µM (inactive) in each case. Besides, the GI50 with TK-10 was > 100 µM (inactive).
